Broadly, the Kd is a measure of binding affinity in units of concentration.

Active and inactive are the calls of the source. A value given as a limit tells only on which side of the number the result lay.

From ChEMBL document CHEMBL3991601, “The target landscape of clinical kinase drugs” (Science, 2017) come the findings set out here.

Assay [1] deals with T1, Interleukin-1 receptor-associated kinase 3 (Homo sapiens, UniProt Q9Y616).
T1 sequence (Q9Y616 whole entry): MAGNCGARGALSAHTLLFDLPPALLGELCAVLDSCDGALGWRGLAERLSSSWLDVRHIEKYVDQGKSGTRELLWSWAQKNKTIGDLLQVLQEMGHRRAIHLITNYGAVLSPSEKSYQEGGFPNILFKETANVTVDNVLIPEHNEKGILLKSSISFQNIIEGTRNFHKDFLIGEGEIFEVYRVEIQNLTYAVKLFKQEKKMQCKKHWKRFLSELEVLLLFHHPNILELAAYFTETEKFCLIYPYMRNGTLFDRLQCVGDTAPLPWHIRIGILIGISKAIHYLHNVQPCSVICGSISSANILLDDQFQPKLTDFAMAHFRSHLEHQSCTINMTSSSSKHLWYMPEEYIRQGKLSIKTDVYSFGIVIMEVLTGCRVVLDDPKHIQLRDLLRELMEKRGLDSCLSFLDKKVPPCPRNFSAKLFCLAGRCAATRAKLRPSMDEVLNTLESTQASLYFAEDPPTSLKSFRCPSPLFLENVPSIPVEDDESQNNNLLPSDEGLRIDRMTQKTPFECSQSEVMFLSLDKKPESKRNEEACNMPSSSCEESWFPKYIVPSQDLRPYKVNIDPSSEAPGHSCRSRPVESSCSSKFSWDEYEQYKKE

The target of assay [2] is T2, Mitogen-activated protein kinase kinase kinase kinase 3 (Homo sapiens, UniProt Q8IVH8).
T2 sequence (Q8IVH8 whole entry): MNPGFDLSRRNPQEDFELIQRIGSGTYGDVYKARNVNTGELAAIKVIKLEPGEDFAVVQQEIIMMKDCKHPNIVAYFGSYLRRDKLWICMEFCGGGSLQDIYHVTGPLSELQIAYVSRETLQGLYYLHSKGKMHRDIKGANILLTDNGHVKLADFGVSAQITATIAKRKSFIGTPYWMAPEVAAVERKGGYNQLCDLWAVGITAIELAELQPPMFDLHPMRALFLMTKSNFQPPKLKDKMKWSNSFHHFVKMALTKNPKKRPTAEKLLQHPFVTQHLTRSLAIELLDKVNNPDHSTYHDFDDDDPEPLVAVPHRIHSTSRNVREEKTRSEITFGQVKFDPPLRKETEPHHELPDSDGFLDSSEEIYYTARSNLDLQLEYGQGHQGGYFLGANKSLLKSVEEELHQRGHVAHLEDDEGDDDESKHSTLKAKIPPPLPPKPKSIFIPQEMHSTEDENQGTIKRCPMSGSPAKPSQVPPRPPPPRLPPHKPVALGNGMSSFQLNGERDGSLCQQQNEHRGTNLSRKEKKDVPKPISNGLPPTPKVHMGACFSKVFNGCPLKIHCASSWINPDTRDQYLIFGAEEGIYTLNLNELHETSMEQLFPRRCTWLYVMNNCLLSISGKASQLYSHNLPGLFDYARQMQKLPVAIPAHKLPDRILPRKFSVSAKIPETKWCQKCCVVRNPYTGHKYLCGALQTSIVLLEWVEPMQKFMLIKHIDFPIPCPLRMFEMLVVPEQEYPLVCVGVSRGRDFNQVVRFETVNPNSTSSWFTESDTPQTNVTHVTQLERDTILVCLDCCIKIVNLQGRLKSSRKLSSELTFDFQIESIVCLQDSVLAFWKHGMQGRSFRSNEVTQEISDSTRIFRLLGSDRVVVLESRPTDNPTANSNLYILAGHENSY

Assay [3] has as its target T3, Serine/threonine-protein kinase Nek1 (Homo sapiens, UniProt Q96PY6).
T3 sequence (Q96PY6 whole entry): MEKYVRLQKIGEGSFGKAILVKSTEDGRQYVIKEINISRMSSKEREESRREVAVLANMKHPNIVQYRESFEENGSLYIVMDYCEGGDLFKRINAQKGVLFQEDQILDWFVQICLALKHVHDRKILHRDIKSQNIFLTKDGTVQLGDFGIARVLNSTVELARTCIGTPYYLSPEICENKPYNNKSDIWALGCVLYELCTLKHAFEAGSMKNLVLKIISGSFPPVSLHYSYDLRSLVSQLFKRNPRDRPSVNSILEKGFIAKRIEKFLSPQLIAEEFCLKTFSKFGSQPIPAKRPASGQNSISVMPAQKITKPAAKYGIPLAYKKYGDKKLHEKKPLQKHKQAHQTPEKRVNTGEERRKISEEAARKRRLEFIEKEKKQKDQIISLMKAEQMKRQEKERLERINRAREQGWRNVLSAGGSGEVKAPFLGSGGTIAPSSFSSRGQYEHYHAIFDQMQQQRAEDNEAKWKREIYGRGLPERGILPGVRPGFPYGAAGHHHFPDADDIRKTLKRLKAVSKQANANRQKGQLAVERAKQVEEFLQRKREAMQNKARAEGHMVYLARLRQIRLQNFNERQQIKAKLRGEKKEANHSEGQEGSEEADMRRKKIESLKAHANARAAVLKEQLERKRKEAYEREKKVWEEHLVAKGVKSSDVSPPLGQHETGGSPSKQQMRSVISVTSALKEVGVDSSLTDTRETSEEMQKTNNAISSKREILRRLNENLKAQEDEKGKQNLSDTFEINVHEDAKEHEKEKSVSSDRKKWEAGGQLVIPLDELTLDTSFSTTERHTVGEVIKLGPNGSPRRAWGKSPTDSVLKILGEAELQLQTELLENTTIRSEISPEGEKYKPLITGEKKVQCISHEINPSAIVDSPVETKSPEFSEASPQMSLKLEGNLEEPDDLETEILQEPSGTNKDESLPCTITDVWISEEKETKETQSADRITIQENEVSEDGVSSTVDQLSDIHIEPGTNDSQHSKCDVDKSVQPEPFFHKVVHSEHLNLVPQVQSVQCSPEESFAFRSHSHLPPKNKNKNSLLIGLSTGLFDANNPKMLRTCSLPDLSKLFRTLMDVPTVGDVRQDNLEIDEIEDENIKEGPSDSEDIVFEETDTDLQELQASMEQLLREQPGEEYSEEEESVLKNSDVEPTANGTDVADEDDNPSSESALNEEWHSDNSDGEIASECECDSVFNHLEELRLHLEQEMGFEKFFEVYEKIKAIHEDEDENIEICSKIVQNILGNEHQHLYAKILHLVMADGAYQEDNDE

The target of assay [4] is T4, Ras-related protein Rab-10 (Homo sapiens, UniProt P61026).
T4 sequence (P61026 whole entry): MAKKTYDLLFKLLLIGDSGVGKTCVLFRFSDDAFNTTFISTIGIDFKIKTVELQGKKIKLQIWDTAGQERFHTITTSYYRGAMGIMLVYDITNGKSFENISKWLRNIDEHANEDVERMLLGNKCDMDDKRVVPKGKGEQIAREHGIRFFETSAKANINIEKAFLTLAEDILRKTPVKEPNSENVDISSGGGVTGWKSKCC
Also: in the data inactive means no Kd found up to 30 µM.

For `COc1ccc(S(=O)(=O)N(C(C)=O)c2ccccc2/C=C/c2cc[n+]([O-])cc2)cc1` [HMN-214], the Kd in assay [1], in assay [2], in assay [3] and in assay [4] was > 30 µM (inactive) each time.

Turning to `CNC(=O)c1cccc2cc(Oc3ccnc4cc(OCC5(N)CC5)c(OC)cc34)ccc12` [LUCITANIB], the Kd in assay [1], in assay [2], in assay [3] and in assay [4] was > 30 µM (inactive) each time.

As to `CNC(=O)c1nn(C)c2c1C(C)(C)Cc1cnc(Nc3ccc(N4CCN(C)CC4)cc3)nc1-2` [MILCICLIB], the Kd is 0.291 µM (active) in assay [1], 2.06 µM (active) in assay [2], > 30 µM (inactive) in assay [3] and > 30 µM (inactive) in assay [4].

`NC1(c2ccc(-c3nc4ccn5c(=O)[nH]nc5c4cc3-c3ccccc3)cc2)CCC1` [MK-2206]: the Kd in assay [1], in assay [2], in assay [3] and in assay [4] was > 30 µM (inactive) throughout.

In the case of `CN(C[C@@H]1COCCO1)S(=O)(=O)Nc1ccc2ccc3ncc(-c4cnn(C)c4)cc3c(=O)c2c1` [MK-2461], the Kd was 0.502 µM (active) in assay [1], > 30 µM (inactive) in assay [2], > 30 µM (inactive) in assay [3] and > 30 µM (inactive) in assay [4].

For `Cn1cc(-c2cnc3ccc4ccc(CS(=O)(=O)NCc5ccccn5)cc4c(=O)c3c2)cn1` [MK-8033], the Kd in assay [1], in assay [2], in assay [3] and in assay [4] was > 30 µM (inactive) each time.

Consider `FC(F)(F)c1ccc(/C=C/c2nc(COc3ccc(CCCCn4ccnn4)cc3)co2)cc1` [MUBRITINIB], for which the Kd in assay [1], in assay [2], in assay [3] and in assay [4] was > 30 µM (inactive) throughout.

`COc1ncc(-c2ccc3nccc(-c4ccnnc4)c3c2)cc1NS(=O)(=O)c1ccc(F)cc1F` [OMIPALISIB]: the Kd is 3.03 µM (active) in assay [1], > 30 µM (inactive) in assay [2], > 30 µM (inactive) in assay [3] and > 30 µM (inactive) in assay [4].

For the compound `CCCCCCCCCCCCCCCCCCOP(=O)([O-])OC1CC[N+](C)(C)CC1` [PERIFOSINE], the Kd in assay [1], in assay [2], in assay [3] and in assay [4] was > 30 µM (inactive) each time.

Regarding `Cc1nc(Nc2n[nH]c3c2CN(C(=O)N[C@H](CN(C)C)c2ccccc2)C3(C)C)c2sccc2n1` [PF-03758309], the Kd is > 30 µM (inactive) in assay [1], 2.19 µM (active) in assay [2], > 30 µM (inactive) in assay [3] and > 30 µM (inactive) in assay [4].

Take `CC(=O)NCC(=O)N1[C@@H]2CC[C@H]1c1ccc(Nc3ncc(C(F)(F)F)c(NC4CCC4)n3)cc12` [PF-03814735]: the Kd in assay [1] is > 30 µM (inactive); in assay [2], 0.766 µM (active); in assay [3], > 30 µM (inactive); in assay [4], > 30 µM (inactive).

`Cc1cnc(NC(=O)Nc2cc(Br)c(C)cc2OC[C@@H]2CNCCO2)cn1` [RABUSERTIB]: the Kd in assay [1], in assay [2], in assay [3] and in assay [4] was > 30 µM (inactive) each time.

`CNC(=O)c1cc(Oc2ccc(NC(=O)Nc3cc(C(C)(C)C)nn3-c3ccc4ncccc4c3)c(F)c2)ccn1` [REBASTINIB]: the Kd in assay [1], in assay [2], in assay [3] and in assay [4] was > 30 µM (inactive) each time.

Consider `CO[C@H]1C[C@@H]2CC[C@@H](C)[C@@](O)(O2)C(=O)C(=O)N2CCCC[C@H]2C(=O)O[C@H]([C@H](C)C[C@@H]2CC[C@@H](OP(C)(C)=O)[C@H](OC)C2)CC(=O)[C@H](C)/C=C(\C)[C@@H](O)[C@@H](OC)C(=O)[C@H](C)C[C@H](C)/C=C/C=C/C=C/1C` [RIDAFOROLIMUS], for which the Kd in assay [1], in assay [2], in assay [3] and in assay [4] was > 30 µM (inactive) in each case.

Regarding `N#CC1(c2ccc(NC(=O)c3cccnc3NCc3ccncc3)cc2)CCCC1` [RIVOCERANIB], the Kd in assay [1], in assay [2], in assay [3] and in assay [4] was > 30 µM (inactive) each time.

Take `O=c1[nH]ccc2cc(OC3CCNCC3)ccc12` [SAR-407899 FREE BASE]: the Kd in assay [1], in assay [2], in assay [3] and in assay [4] was > 30 µM (inactive) throughout.

As to `CN1CCN(CCOc2cc(OC3CCOCC3)c3c(Nc4c(Cl)ccc5c4OCO5)ncnc3c2)CC1` [SARACATINIB], the Kd in assay [1], in assay [2], in assay [3] and in assay [4] was > 30 µM (inactive) throughout.

Turning to `Cn1cc(-c2cnn3c(N)c(Br)c([C@@H]4CCCNC4)nc23)cn1` [SCH-900776], the Kd in assay [1], in assay [2], in assay [3] and in assay [4] was > 30 µM (inactive) throughout.
